Converted amounts (≈) assume the structure as drawn. The source made the active and inactive calls. The rule behind the calls is not given here.
How the values were obtained:
[1] = Plasma clearance in CD-1 mouse at 3 mg/kg, iv administered as 15 mins infusion by LC-MS/MS analysis; assay type: ADME, organism-based; details: in vivo, 0.25 h
Staphylococcus aureus [2] = assay: Antibacterial activity against methicillin sensitive Staphylococcus aureus ARC516 infected in CD-1 mouse neutropenic thigh infection model assessed as log reduction in colony forming unit at 50 to 75 mg/kg, ip measured after 24 hrs relative to untreated control; assay type: functional; details: dose mg/kg 50-75
Staphylococcus aureus [3] = assay: Antibacterial activity against methicillin/quinolone-resistant Staphylococcus aureus ARC517 by broth microdilution method; assay type: functional
[4] = Half life in Wistar Han rat at 3 mg/kg, iv administered as 15 mins infusion by LC-MS/MS analysis; assay type: ADME, organism-based; details: in vivo
[5] = Solubility of the compound by high throughput solubility assay; assay type: physicochemical
Haemophilus influenzae = assay: Antibacterial activity against Haemophilus influenzae ARC737 by broth microdilution method; assay type: functional
Staphylococcus aureus [6] = assay: Antibacterial activity against methicillin sensitive Staphylococcus aureus ARC516 infected in CD-1 mouse neutropenic thigh infection model assessed as reduction in colony forming unit at 10 to 25 mg/kg, ip measured after 24 hrs; assay type: functional, organism-based
[7] = Protein binding in mouse plasma assessed as unbound fraction at 10 uM measured after 16 hrs by LC-MS/MS based equilibrium dialysis method; assay type: ADME, cell-free
Streptococcus pneumoniae = assay: Antibacterial activity against Streptococcus pneumoniae ARC548 by broth microdilution method; assay type: functional
[8] = Protein binding in human plasma assessed as unbound fraction at 10 uM measured after 16 hrs by LC-MS/MS based equilibrium dialysis method; assay type: ADME, cell-free
Staphylococcus aureus [9] = assay: Antibacterial activity against methicillin sensitive Staphylococcus aureus ARC516 infected in CD-1 mouse neutropenic thigh infection model assessed as log reduction in colony forming unit at 50 to 75 mg/kg, ip measured after 24 hrs relative to initial treatment control; assay type: functional; details: dose mg/kg 50-75
[10] = Oral bioavailability in CD-1 mouse at 10 mg/kg by LC-MS/MS analysis; assay type: ADME, organism-based; details: in vivo
[11] = Volume of distribution at steady state in Wistar Han rat at 3 mg/kg, iv administered as 15 mins infusion by LC-MS/MS analysis; assay type: ADME, organism-based; details: in vivo, read-out: Vdss
Staphylococcus aureus [12] = assay: Antibacterial activity against methicillin sensitive Staphylococcus aureus ARC516 by broth microdilution method; assay type: functional
Staphylococcus aureus [13] = assay: Antibacterial activity against methicillin sensitive Staphylococcus aureus ARC516 in presence of human serum by broth microdilution method; assay type: functional
[14] = Protein binding in rat plasma assessed as unbound fraction at 10 uM measured after 16 hrs by LC-MS/MS based equilibrium dialysis method; assay type: ADME, cell-free
L5178Y = assay: Genotoxicity in mouse L5178Y cells using DAPI staining by microscopy based micronucleation assay; assay type: toxicity, cell-based
[15] = Unbound plasma clearance in CD-1 mouse at 3 mg/kg, iv administered as 15 mins infusion by LC-MS/MS analysis; assay type: ADME, organism-based; details: in vivo, 0.25 h
[16] = n-octanol/phosphate buffer partition coefficient, log D of the compound at pH 7.4 measured after 1 hr by UV-LC/MS based shake flask method; assay type: physicochemical
Streptococcus pyogenes = assay: Antibacterial activity against Streptococcus pyogenes ARC838 by broth microdilution method; assay type: functional
[17] = Inhibition of recombinant Escherichia coli DNA gyrase AB expressed in Escherichia coli BL21 (DE3) using relaxed pJT519 DNA as substrate preincubated for 20 mins followed by 5'-BODIPY-TMR-TTCTTCTTCT addition and measured after 1 hr by fluorescence anisotropy
Escherichia coli = assay: Antibacterial activity against Escherichia coli ARC523 by broth microdilution method; assay type: functional
[18] = Oral bioavailability in Wistar Han rat at 10 mg/kg by LC-MS/MS analysis; assay type: ADME, organism-based; details: in vivo
[19] = Ratio of MIC for antibacterial activity against methicillin/quinolone-resistant Staphylococcus aureus ARC517 to protein binding in human plasma assessed as unbound fraction
[20] = Volume of distribution at steady state in CD-1 mouse at 3 mg/kg, iv administered as 15 mins infusion by LC-MS/MS analysis; assay type: ADME, organism-based; details: in vivo, read-out: Vdss
[21] = Half life in CD-1 mouse at 3 mg/kg, iv administered as 15 mins infusion by LC-MS/MS analysis; assay type: ADME, organism-based; details: in vivo
Staphylococcus aureus [22] = assay: Antibacterial activity against methicillin sensitive Staphylococcus aureus ARC516 infected in CD-1 mouse neutropenic thigh infection model assessed as log reduction in colony forming unit at 100 mg/kg, ip bid in presence of ABT relative to initial treatment control; assay type: functional
Staphylococcus aureus [23] = assay: Antibacterial activity against methicillin sensitive Staphylococcus aureus ARC516 infected in CD-1 mouse neutropenic thigh infection model assessed as reduction in colony forming unit at 20 mg/kg, ip bid in presence of ABT; assay type: functional, organism-based

| SMILES | CL [1] [mL/min/kg] | MIC (Staphylococcus aureus [3]) [µM] | half-life [4] [min] | fraction unbound at 16 h, 10 µM [7] | fraction unbound at 16 h, 10 µM [8] | bioavailability [10] [%] | Vd [11] [L/kg] | MIC (Staphylococcus aureus [12]) [µM] | MIC (Staphylococcus aureus [13]) [µM] | fraction unbound at 16 h, 10 µM [14] | NOAEL (L5178Y) [µM] | CL free [15] [mL/min/kg] | logD at 1 h [16] | IC50 [17] [nM] | MIC (Escherichia coli) [µM] | bioavailability [18] [%] | Ratio [19] | other results |
| --- | --- | --- | --- | --- | --- | --- | --- | --- | --- | --- | --- | --- | --- | --- | --- | --- | --- | --- |
| C[C@@H]1CN2c3c(cc4c(-n5cncn5)noc4c3F)CC3(C(=O)NC(=O)NC3=O)[C@H]2[C@H](C)O1 | 0.021 | 0.2 (≈ 0.0911 µg/mL) | 145 | 0.12 | 0.13 | 37 | 1.9 | 0.049 (≈ 0.0223 µg/mL) | < 0.2 | 0.1 | < 6 | 0.175 | 1.7 | 220 | 12.5 (≈ 5.69 µg/mL) | 62 | 1.4 | log(activity) (Staphylococcus aureus [2]): 4; solubility [5]: 250 µM (≈ 114 µg/mL); MIC (Haemophilus influenzae): 0.39 µM (≈ 0.178 µg/mL); Activity (Staphylococcus aureus [6]): Active; MIC (Streptococcus pneumoniae): 0.39 µM (≈ 0.178 µg/mL); log(activity) (Staphylococcus aureus [9]): >2; MIC (Streptococcus pyogenes): 0.39 µM (≈ 0.178 µg/mL) |
| C[C@@H]1CN2c3c(cc4c(N5C(=O)OC[C@@H]5C)noc4c3F)CC3(C(=O)NC(=O)NC3=O)[C@H]2[C@H](C)O1 [ZOLIFLODACIN] | 0.057 | 0.78 (≈ 0.38 µg/mL) | 47.4 | 0.17 | 0.18 | 43.5 | 1.5 | 0.2 (≈ 0.0975 µg/mL) | 0.39 | 0.13 | > 400 | 0.335 | 1.7 | 170 | 6.2 (≈ 3.02 µg/mL) | 31 | 4.3 | Vd [20]: 3 L/kg; half-life [21]: 36.6 min; log(activity) (Staphylococcus aureus [22]): 1.8; Activity (Staphylococcus aureus [23]): Active |
